Read-outs that look alike come from different tables or passages of the source.
Experiments:
[1] = molecular target: Ba/F3 cells containing Ros1 with a mutation at the gatekeeper residue (L2026M) (Homo sapiens, UniProt P08922, L2026M, cells depend on it, form not given); experiment: Ba/F3-Ros1 cell proliferation assay, L2026M gatekeeper mutant; type: cell-based, murine; conditions: without IL-3
Summary of the method: (§1)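 20000 Ba/F3-Ros1 cells/well (WT, L2026M, G2032R), RPMI-1640 phenol red free + 10% FBS + 2 mM Gln, cpds from DMSO; 24 h, 37 °C, 5% CO2. Alamar Blue 4 h, RFU ex540/em590.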

[2] = system: HCC78 non-small cell lung cancer cells; experiment: HCC78 cell proliferation assay; type: cell-based; conditions: for EC50: Homo sapiens, HCC78, 96 h, read-out: HCC-78 PROL pEC50 (converted)
Method: HCC78 Cell Proliferation Assay
Approximately 1000 HCC78 non-small cell lung cancer cells in 180 μl of cell culture medium (RPMI-1640, 10% FBS, 2 mM L-Glutamine, 10 mM Hepes, 1 mM sodium pyruvate, 4.5 g/L glucose, 1.5 g/L sodium bicarbonate, 25 μg/ml Gentamycin) were seeded in each well of a 96-well polystyrene, tissue-culture treated plate and incubated at 37° C. and 5% CO2. After 24 hours, compounds were diluted in cell culture medium from which 20 μl was added to the wells containing cells and incubated for 4 days at 37° C. and 5% CO2. A 5 mg/ml solution of the tetrazolium dye MTT was prepared in PBS (phosphate-buffered saline) and 25 μl was added to each well. After 2 hours the medium was removed and replaced by 125 μL of 4/1 DMSO/glycine buffer (0.1M glycine, 0.1M NaCl, pH 10.5) before absorbance was determined at 538 nm.

Ros1 enzyme = molecular target: T1, Ros1 enzyme (Homo sapiens, UniProt P08922); experiment: Ros1 enzymatic assay; type: biochemical; conditions: Ros1 enzymatic assay; read-out: ROS1 pIC50 (converted)
T1 construct: 0.5 μg/ml Ros1 enzyme
T1 sequence (P08922 28-2347): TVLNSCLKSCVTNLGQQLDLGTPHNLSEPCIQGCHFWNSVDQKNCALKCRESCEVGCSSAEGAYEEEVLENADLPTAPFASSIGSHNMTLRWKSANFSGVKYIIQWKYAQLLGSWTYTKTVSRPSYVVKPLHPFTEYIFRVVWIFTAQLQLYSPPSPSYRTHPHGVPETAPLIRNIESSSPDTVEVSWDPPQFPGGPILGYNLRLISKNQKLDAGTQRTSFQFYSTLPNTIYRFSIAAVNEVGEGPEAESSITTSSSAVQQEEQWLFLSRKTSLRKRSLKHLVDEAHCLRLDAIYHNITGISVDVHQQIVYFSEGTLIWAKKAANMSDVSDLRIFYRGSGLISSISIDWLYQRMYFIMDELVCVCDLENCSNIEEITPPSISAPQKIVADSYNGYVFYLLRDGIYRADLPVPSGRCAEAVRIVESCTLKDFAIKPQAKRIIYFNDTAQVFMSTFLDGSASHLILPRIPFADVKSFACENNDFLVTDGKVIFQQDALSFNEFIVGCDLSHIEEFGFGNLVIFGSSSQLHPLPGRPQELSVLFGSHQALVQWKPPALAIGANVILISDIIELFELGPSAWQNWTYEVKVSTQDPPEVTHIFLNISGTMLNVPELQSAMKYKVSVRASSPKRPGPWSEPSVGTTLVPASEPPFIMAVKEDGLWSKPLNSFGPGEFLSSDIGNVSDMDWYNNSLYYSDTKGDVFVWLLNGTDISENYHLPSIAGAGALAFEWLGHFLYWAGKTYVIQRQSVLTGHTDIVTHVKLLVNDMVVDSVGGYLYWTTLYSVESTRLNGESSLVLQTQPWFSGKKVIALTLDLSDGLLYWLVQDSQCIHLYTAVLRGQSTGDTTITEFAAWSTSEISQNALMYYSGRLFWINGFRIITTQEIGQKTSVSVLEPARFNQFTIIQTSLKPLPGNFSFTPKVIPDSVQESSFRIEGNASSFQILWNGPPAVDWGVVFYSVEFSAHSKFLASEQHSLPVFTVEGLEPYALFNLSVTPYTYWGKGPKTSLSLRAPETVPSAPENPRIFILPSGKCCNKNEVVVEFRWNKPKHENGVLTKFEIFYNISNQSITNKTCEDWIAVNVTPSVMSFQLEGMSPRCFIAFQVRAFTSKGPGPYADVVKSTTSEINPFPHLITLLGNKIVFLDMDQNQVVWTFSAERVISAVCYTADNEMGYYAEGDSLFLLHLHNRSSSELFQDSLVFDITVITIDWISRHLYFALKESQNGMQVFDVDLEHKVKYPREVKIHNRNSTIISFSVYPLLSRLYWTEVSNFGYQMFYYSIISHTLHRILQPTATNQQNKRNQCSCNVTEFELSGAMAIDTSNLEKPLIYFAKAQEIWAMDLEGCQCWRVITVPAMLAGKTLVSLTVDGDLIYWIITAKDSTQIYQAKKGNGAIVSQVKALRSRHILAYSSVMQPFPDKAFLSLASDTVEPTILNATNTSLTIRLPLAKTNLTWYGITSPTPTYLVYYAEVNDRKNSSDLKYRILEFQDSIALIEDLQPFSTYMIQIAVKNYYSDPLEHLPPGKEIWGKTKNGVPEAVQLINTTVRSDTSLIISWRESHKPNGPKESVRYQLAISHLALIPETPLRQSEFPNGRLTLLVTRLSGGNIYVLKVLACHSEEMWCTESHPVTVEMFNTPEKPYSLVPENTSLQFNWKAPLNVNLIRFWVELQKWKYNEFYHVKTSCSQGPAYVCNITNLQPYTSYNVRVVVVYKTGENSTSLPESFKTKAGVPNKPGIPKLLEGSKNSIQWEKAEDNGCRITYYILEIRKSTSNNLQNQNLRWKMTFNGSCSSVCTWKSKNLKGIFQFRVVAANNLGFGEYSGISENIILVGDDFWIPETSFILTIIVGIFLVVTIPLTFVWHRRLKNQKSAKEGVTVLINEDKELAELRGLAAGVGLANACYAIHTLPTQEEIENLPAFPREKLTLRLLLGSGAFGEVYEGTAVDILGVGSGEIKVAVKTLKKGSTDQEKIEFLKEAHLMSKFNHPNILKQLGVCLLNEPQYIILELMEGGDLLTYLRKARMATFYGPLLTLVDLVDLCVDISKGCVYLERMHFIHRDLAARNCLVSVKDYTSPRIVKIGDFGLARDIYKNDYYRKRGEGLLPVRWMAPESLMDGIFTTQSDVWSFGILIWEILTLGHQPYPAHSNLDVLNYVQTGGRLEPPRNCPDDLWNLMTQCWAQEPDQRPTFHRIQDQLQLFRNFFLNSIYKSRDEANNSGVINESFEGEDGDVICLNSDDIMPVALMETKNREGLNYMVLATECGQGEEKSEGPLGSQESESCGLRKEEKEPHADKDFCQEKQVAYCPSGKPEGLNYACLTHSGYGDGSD
Summary of the method: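 Ros1 kinase, IRS-Tide peptide, 20 μM ATP + [33P]ATP (substrate-mix concentrations); Tris-HCl pH7.5, 10 mM MgCl2, 1 mM EGTA, 0.01% Tween-20; 120 min RT; EDTA/excess ATP stop, streptavidin beads 15 min, LEADseeker imaging.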

[3] = system: Ba/F3 cells containing Ros1 wild-type protein + IL-3; experiment: Ba/F3-Ros1 cell proliferation counter-screen, wild-type protein in the presence of 10 ng/ml murine IL-3; type: cell-based; conditions: Mus musculus, BaF3, 24 h, read-out: BaF3-ROS1 + IL3 pIC50 (converted)
Summary of the method: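 Read-out is resazurin-based Alamar Blue fluorescence (RFU, ex 540 nm, em 590 nm), measured 4 h after dye addition. Before that, wild-type Ros1 Ba/F3 cells had been cultured 24 h with compound in the presence of 10 ng/ml murine IL-3.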

[4] = molecular target: T2, Ba/F3 cells containing Ros1 wild-type protein (Homo sapiens, UniProt P08922, cells depend on it, form not given); experiment: Ba/F3-Ros1 cell proliferation assay, wild-type Ros1; type: cell-based, murine; conditions: without IL-3
T2 construct: The background only speaks of 'a number of different unrelated proteins' and names SLC34A2-ROS1 for HCC78 cells
T2 sequence (P08922 whole entry, stated change not applied): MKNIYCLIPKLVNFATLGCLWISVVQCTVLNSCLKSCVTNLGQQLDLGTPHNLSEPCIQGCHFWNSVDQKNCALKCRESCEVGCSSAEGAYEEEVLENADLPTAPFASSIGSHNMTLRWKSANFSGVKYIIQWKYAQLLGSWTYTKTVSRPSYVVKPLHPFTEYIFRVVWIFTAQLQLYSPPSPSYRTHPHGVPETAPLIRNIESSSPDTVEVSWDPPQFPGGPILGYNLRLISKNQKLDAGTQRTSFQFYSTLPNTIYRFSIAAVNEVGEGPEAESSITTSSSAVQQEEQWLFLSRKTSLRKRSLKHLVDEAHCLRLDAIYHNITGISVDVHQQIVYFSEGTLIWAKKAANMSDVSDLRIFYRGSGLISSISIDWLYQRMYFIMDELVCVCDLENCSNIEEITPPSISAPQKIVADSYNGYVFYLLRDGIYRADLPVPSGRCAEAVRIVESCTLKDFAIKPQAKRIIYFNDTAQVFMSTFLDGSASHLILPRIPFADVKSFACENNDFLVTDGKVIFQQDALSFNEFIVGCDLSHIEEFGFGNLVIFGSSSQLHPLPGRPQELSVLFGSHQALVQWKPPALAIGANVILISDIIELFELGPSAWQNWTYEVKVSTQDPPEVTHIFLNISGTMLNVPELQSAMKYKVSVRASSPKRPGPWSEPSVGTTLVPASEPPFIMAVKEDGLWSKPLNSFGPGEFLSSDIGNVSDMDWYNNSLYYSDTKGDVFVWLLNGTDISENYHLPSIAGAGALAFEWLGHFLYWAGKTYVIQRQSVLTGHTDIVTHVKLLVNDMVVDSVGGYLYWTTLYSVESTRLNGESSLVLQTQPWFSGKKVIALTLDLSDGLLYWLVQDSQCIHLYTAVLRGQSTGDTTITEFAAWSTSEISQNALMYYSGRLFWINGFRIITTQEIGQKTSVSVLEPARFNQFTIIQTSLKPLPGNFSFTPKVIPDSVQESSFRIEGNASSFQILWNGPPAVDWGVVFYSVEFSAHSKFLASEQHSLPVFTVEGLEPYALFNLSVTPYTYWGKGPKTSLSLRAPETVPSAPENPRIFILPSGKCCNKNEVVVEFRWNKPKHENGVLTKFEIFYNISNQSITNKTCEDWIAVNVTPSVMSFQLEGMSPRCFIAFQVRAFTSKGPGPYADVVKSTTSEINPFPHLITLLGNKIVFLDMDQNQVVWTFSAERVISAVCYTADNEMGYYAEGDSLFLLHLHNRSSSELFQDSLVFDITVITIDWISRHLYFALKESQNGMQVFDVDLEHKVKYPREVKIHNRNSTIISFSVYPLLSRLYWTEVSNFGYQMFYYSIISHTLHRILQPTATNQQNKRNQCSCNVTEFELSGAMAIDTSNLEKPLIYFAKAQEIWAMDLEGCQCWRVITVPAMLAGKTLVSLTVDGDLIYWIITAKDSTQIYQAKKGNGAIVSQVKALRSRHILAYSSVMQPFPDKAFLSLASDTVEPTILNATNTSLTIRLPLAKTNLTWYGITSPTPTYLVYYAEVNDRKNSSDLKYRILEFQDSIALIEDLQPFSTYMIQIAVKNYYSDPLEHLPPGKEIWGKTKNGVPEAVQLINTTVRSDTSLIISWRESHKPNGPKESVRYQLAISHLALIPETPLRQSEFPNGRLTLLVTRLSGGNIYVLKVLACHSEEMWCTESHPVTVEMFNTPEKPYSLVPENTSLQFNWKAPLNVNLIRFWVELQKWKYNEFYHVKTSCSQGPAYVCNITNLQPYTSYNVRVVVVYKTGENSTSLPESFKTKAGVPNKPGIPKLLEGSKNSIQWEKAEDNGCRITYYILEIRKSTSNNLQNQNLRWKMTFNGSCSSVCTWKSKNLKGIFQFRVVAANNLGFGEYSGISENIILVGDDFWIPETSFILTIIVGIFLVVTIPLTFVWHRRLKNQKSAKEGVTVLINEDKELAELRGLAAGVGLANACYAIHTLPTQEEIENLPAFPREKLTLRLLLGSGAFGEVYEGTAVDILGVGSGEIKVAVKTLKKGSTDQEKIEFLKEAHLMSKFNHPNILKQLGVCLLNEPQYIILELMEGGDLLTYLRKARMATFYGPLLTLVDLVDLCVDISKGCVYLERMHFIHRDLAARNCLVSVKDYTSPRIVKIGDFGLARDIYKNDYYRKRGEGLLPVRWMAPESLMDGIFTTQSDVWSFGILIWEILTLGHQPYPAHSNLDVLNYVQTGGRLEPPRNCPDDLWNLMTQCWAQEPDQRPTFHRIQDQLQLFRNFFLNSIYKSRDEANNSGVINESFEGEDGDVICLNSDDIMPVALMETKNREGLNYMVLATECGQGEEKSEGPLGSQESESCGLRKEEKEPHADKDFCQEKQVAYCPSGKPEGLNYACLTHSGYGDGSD
Summary of the method: as §1

[5] = counter-screen, wild-type, 10 ng/ml murine IL-3

Ba/F3 cells containing Ros1 with a mutation at the gatekeeper residue (L2026M), sequence (P08922 whole entry L2026M, form open): as the sequence (P08922 whole entry, stated change not applied) above, with L2026M counted along it

Compound | Ba/F3 Ros1 L2026M (-IL-3) pIC50 [1] | EC50 [2] | melting point | IC50 (Ros1 enzyme) | CC50 [3] | BaF3-ROS1-IL3 pIC50 [4] | HCC-78 PROL pEC50 ([2]; HCC78 cells, 4 days, MTT) | CC50 [3, 5] | EC50 ([2]; HCC78 cells, 4 days, MTT)
CC(C)c1ccc(COc2ccc(-c3c(-c4ccncc4)nn4c3C(=O)N(CCO)CC4)c(F)c2F)cc1 [Compound 20] | 7.0 | 1580 nM | 138 °C | 100 nM | > 10000 nM | 6.9 |  |  | 
CC(C)c1ccc(COc2ccc(-c3c(-c4ccncc4)nn4c3C(=O)N(CC(O)CO)CC4)c(F)c2)cc1 (stereo not drawn) [Compound 23] | 7.2 |  | 192 °C | 12.6 nM |  | 7.7 | 7.2 | > 10000 nM | 
CC(C)c1ccc(COc2ccc(-c3c(-c4ccncc4)nn4c3C(=O)NCC4)c(Cl)c2)cc1 [Compound 24] | 8.2 | 1.58 nM | 267 °C | 7.94 nM | > 10000 nM | 7.8 |  |  | 
CC(C)c1ccc(COc2ccc(-c3c(-c4ccncc4)nn4c3C(=O)NCC4)cc2Cl)cc1 [Compound 25] | 6.5 | 501 nM | 251 °C | 126 nM | > 10000 nM | 6.8 |  |  | 
CC(C)c1ccc(COc2ccc(-c3c(-c4ccncc4)nn4c3C(=O)NCC4)c(C#N)c2)cc1 [Compound 27] | 7.1 | 20 nM | 268 °C | 15.8 nM | > 10000 nM | 7.7 |  |  | 
Cc1cc(-c2c(-c3ccncc3)nn3c2C(=O)NCC3)cc(C)c1OCc1ccc(C(C)C)cc1 [Compound 29] | <5 | > 10000 nM | 260 °C | > 10000 nM | > 10000 nM | <5 |  |  | 
Cc1cc(-c2c(-c3ccncc3)nn3c2C(=O)N(CCO)CC3)cc(C)c1OCc1ccc(C(C)C)cc1 [Compound 30] | <5 | > 10000 nM | 170 °C | > 10000 nM | > 10000 nM | <5 |  |  | 
COc1cc(-c2c(-c3ccncc3)nn3c2C(=O)NCC3)cc(OC)c1OCc1ccc(C(C)C)cc1 [Compound 35] | 5.8 | > 10000 nM | 192 °C | 5010 nM | > 10000 nM | 5.7 |  |  | 
COc1cc(-c2c(-c3ccncc3)nn3c2C(=O)N(CCO)CC3)cc(OC)c1OCc1ccc(C(C)C)cc1 [Compound 36] | 5.7 | > 10000 nM | 176 °C | 5010 nM | > 10000 nM | 5.8 |  |  | 
CC(C)c1ccc(COc2ccc(-c3c(-c4ccncc4)nn4c3C(=O)N(CC3COC(C)(C)O3)CC4)cc2)cc1 (stereo not drawn) [Compound 42] | 6.3 |  | 114 °C | 398 nM |  | 6.7 |  | > 10000 nM | 1260 nM
CC(C)c1ccc(COc2ccc(-c3c(-c4ccncc4)nn4c3C(=O)N(CC(O)CO)CC4)cc2)cc1 (stereo not drawn) [Compound 43] | 7.3 |  | 190 °C | 50.1 nM |  | 7.4 | 6.9 | > 10000 nM | 
CC(C)OCC(O)CN1CCn2nc(-c3ccncc3)c(-c3ccc(OCc4ccc(C(C)C)cc4)cc3)c2C1=O (stereo not drawn) [Compound 45] | 6.6 | 1260 nM | 148 °C | 158 nM | > 10000 nM | 6.7 |  |  | 
COCCN1CCn2nc(-c3ccncc3)c(-c3ccc(OCc4ccc(C(C)C)cc4)cc3)c2C1=O [Compound 50] | 7.2 | 158 nM | 167 °C | 50.1 nM | > 10000 nM | 7.1 |  |  | 

Reference: US10280170B2, “Substituted 4,5,6,7-tetrahydro-pyrazolo[1,5-a]pyrazine derivatives and 5,6,7,8-tetrahydro-4H-pyrazolo[1,5-a][1,4]diazepine derivatives as Ros1 inhibitors” (Janssen Pharmaceutica NV, priority 2014, dated 2019)
